# Results from PMC8530378, “Comparison of: (2S,4R)-4-[^18F]Fluoroglutamine, [^11C]Methionine, and 2-Deoxy-2-[^18F]Fluoro-D-Glucose and Two Small-Animal PET/CT Systems Imaging Rat Gliomas” (Frontiers in Oncology, 2021).
# Assays:
# [1] = [^18F]FGln in vivo stability analysis (bioavailable fraction of whole blood radioactivity); details: both sexes, BDIX, rat, 40 MBq, healthy BDIX rats, approximately 60 min post-injection, n = 10, read-out: Bioavailable [^18F]FGln-fraction of total blood radioactivity
# Procedure: Additional healthy BDIX rats (n = 10, 5 male, 5 female) were injected with approximately 40 MBq of [^18F]FGln and 150–200 µL aliquots of blood drawn at 5, 15, 30, 45, and 60 min into a heparin coated vial at 5°C to be assayed. During the final 60 min collection time point, animals were sacrificed under deep anesthesia via cardiac puncture and cervical dislocation. All radioactivity measurements were performed with a 3″ Nal system (Triathler, Hidex Oy, Turku Finland). Whole blood was weighed and measured for radioactivity before being centrifuged at 700 ×g and 4°C for 5 min. The plasma was separated out before being weighed and gamma counted followed by storage on ice for the later described assays. Hematocrit values used were averaged separately for male and female populations with five samples for each group. The following Equation 1 ([23]) was then used to calculate the radioactivity fraction taken up by the red blood cells and the available plasma fraction to avoid including plasma contamination in the blood cell fraction: […]
# Where C = radioactivity concentration, ρ = density, RBC = red blood cell, and HCT = hematocrit. […]
# Plasma aliquots (80 µL) were then precipitated with methanol (200 µL) before being vortexed thoroughly and centrifuged at 11,000 ×g for 10 min. The two fractions were separated and measured for radioactivity to calculate the unbound radioactivity fraction of the plasma. […]
# [2] = tested on: BT4C glioma and healthy brain ROIs; experiment: Irreversible two-tissue compartment model of dynamic [^18F]FGln PET; type: in vivo, BDIX rats; details: irreversible 2-tissue model, n = 13; for K1 (AB) plasma to tissue transport rate / K1/k2 (AB) equilibrium distribution volume / k3 (AB) rate constant / k3/(k2+k3) (AB): arterial blood input; for K1 (FP) plasma to tissue transport rate / K1/k2 (FP) equilibrium distribution volume / k3 (FP) rate constant / k3/(k2+k3) (FP): free parent plasma input; for K1 (P) plasma to tissue transport rate / K1/k2 (P) equilibrium distribution volume / k3 (P) rate constant / k3/(k2+k3) (P): unbound plasma input
# Description: (§1) The dynamic PET image data was then extracted from each separate image and converted to standardized uptake values (SUV) which account for ROI volume, mean ROI radioactivity, subject weight, and total injected radioactivity dose (corrected for decay, residual syringe and cannula radioactivity). The results are shown as SUV ROI radioactivity curves over time as well as tumor-to-healthy brain region (TBR) ratios for improved comparisons. [^18F]FGln uptake data and blood radioactivity data (corrected for bioavailability fraction over time) were also input into multiple pharmacokinetic models described in the "[^18F]FGln Pharmacokinetic Modeling" section.
# (§2) Blood input values from the heart left ventricle ROI in the PET image data were corrected for bioavailable fraction with Eqn. 2. Logan ([25]), Patlak ([26]), and two two-compartment models ([27]) (reversible and irreversible) were applied to whole-blood, unbound plasma fraction, and unbound plasma fraction assayed for parent-radiopharmaceutical purity as inputs for tumor and healthy brain ROIs. Mean, standard deviation, and two-tailed unpaired Student's t-test (for camera comparison, modeling values, and gender differences) p-values are reported where applicable.
# BT4C gliomas = experiment: Ex vivo brain autoradiography, tumor-to-healthy brain uptake ratio; type: in vivo; details: ex vivo autoradiography of brain slices, BT4C glioma-bearing BDIX rats
# Procedure: Ex vivo biodistribution studies were performed for [^18F]FGln with a complete organ list and results are listed in the Supplementary Material Some subjects from each radiopharmaceutical imaging group were sacrificed for autoradiographical and histological studies immediately after PET imaging. All autoradiography images were analyzed with Carimas software (Turku PET Centre, Turku, Finland).
# The excised brains containing tumors were frozen with liquid nitrogen, sectioned with a Leica CM3050S cryotome into alternating 20 and 8 µm slices on different slides for hematoxylin/eosin and future histochemical staining respectively. […] The slides were then stained with hematoxylin/eosin and digitally scanned with a Pannoramic 250 Flash slide scanner (3DHistech, Budapest, Hungary) Autoradiographs and light micrographs were then aligned in Carimas software (Turku PET Centre, Turku, Finland) and analyzed therein.
# [3] = tested on: BT4C glioma and healthy brain ROIs; experiment: Patlak plot (irreversible uptake model) of dynamic [^18F]FGln PET; type: in vivo, BDIX rats; details: n = 13; for Ic (AB) y intercept: arterial blood input; for Ic (FP) y intercept: free parent plasma input; for Ic (P) y intercept: unbound plasma input
# Description: as §1, §2
# [4] = tested on: BT4C glioma and healthy brain ROIs; experiment: Reversible two-tissue compartment model of dynamic [^18F]FGln PET; type: in vivo, BDIX rats; details: reversible 2-tissue model, n = 13; for K1 (AB) plasma to tissue transport rate / K1/k2 (AB) equilibrium distribution volume / k3 (AB) rate constant / k3/k4 (AB): arterial blood input; for K1 (FP) plasma to tissue transport rate / K1/k2 (FP) equilibrium distribution volume / k3 (FP) rate constant / k3/k4 (FP): free parent plasma input; for K1 (P) plasma to tissue transport rate / K1/k2 (P) equilibrium distribution volume / k3 (P) rate constant / k3/k4 (P): unbound plasma input
# Description: as §1, §2
structure (smiles),measurement,setting,value
"NC(=O)[C@H]([18F])C[C@H](N)C(=O)O [[^18F]FGln, (2S,4R)-4-[^18F]Fluoroglutamine]",bioavailability at 60 min,[1],28.1%
same,K1 (AB) plasma to tissue transport rate,[2]; healthy brain,0.063 ± 0.053 mL min^-1 mL^-1
same,K1/k2 (AB) equilibrium distribution volume,[2]; healthy brain,0.338 ± 0.159 mL mL^-1
same,k3 (AB) rate constant,[2]; healthy brain,0.022 ± 0.010 min⁻¹
same,k3/(k2+k3) (AB),[2]; healthy brain,0.126 ± 0.068 min min^-1
same,K1 (FP) plasma to tissue transport rate,[2]; healthy brain,0.033 ± 0.018 mL min^-1 mL^-1
same,K1/k2 (FP) equilibrium distribution volume,[2]; healthy brain,0.524 ± 0.324 mL mL^-1
same,k3 (FP) rate constant,[2]; healthy brain,0.064 ± 0.063 min⁻¹
same,k3/(k2+k3) (FP),[2]; healthy brain,0.420 ± 0.146 min min^-1
same,K1 (P) plasma to tissue transport rate,[2]; healthy brain,0.024 ± 0.017 mL min^-1 mL^-1
same,K1/k2 (P) equilibrium distribution volume,[2]; healthy brain,0.221 ± 0.105 mL mL^-1
same,k3 (P) rate constant,[2]; healthy brain,0.028 ± 0.014 min⁻¹
same,k3/(k2+k3) (P),[2]; healthy brain,0.215 ± 0.096 min min^-1
same,K1 (AB) plasma to tissue transport rate,[2]; tumor,0.088 ± 0.039 mL min^-1 mL^-1
same,K1/k2 (AB) equilibrium distribution volume,[2]; tumor,0.876 ± 0.29 mL mL^-1
same,k3 (AB) rate constant,[2]; tumor,0.017 ± 0.005 min⁻¹
same,k3/(k2+k3) (AB),[2]; tumor,0.156 ± 0.078 min min^-1
same,K1 (FP) plasma to tissue transport rate,[2]; tumor,0.083 ± 0.113 mL min^-1 mL^-1
same,K1/k2 (FP) equilibrium distribution volume,[2]; tumor,1.841 ± 0.967 mL mL^-1
same,k3 (FP) rate constant,[2]; tumor,0.105 ± 0.246 min⁻¹
same,k3/(k2+k3) (FP),[2]; tumor,0.385 ± 0.157 min min^-1
same,K1 (P) plasma to tissue transport rate,[2]; tumor,0.037 ± 0.015 mL min^-1 mL^-1
same,K1/k2 (P) equilibrium distribution volume,[2]; tumor,0.685 ± 0.330 mL mL^-1
same,k3 (P) rate constant,[2]; tumor,0.017 ± 0.007 min⁻¹
same,k3/(k2+k3) (P),[2]; tumor,0.226 ± 0.078 min min^-1
same,Tumor-to-healthy brain uptake ratio,BT4C gliomas,4.07 ± 0.49
same,Ic (AB) y intercept,[3]; healthy brain,0.376 ± 0.114
same,Ic (FP) y intercept,[3]; healthy brain,0.495 ± 0.195
same,Ic (P) y intercept,[3]; healthy brain,0.236 ± 0.076
same,Ic (AB) y intercept,[3]; tumor,0.676 ± 0.221
same,Ic (FP) y intercept,[3]; tumor,0.823 ± 0.376
same,Ic (P) y intercept,[3]; tumor,0.418 ± 0.149
same,K1 (AB) plasma to tissue transport rate,[4]; healthy brain,0.118 ± 0.132 mL min^-1 mL^-1
same,K1/k2 (AB) equilibrium distribution volume,[4]; healthy brain,0.248 ± 0.128 mL mL^-1
same,k3 (AB) rate constant,[4]; healthy brain,0.060 ± 0.039 min⁻¹
same,k3/k4 (AB),[4]; healthy brain,3.279 ± 1.395 min min^-1
same,K1 (FP) plasma to tissue transport rate,[4]; healthy brain,0.033 ± 0.023 mL min^-1 mL^-1
same,K1/k2 (FP) equilibrium distribution volume,[4]; healthy brain,0.528 ± 0.363 mL mL^-1
same,k3 (FP) rate constant,[4]; healthy brain,0.196 ± 0.354 min⁻¹
same,k3/k4 (FP),[4]; healthy brain,4.462 ± 1.312 min min^-1
same,K1 (P) plasma to tissue transport rate,[4]; healthy brain,0.041 ± 0.031 mL min^-1 mL^-1
same,K1/k2 (P) equilibrium distribution volume,[4]; healthy brain,0.137 ± 0.062 mL mL^-1
same,k3 (P) rate constant,[4]; healthy brain,0.086 ± 0.039 min⁻¹
same,k3/k4 (P),[4]; healthy brain,4.021 ± 1.249 min min^-1
same,K1 (AB) plasma to tissue transport rate,[4]; tumor,0.133 ± 0.079 mL min^-1 mL^-1
same,K1/k2 (AB) equilibrium distribution volume,[4]; tumor,0.551 ± 0.221 mL mL^-1
same,k3 (AB) rate constant,[4]; tumor,0.073 ± 0.054 min⁻¹
same,k3/k4 (AB),[4]; tumor,2.901 ± 1.331 min min^-1
same,K1 (FP) plasma to tissue transport rate,[4]; tumor,0.057 ± 0.023 mL min^-1 mL^-1
same,K1/k2 (FP) equilibrium distribution volume,[4]; tumor,1.646 ± 2.403 mL mL^-1
same,k3 (FP) rate constant,[4]; tumor,0.291 ± 0.481 min⁻¹
same,k3/k4 (FP),[4]; tumor,4.466 ± 1.378 min min^-1
same,K1 (P) plasma to tissue transport rate,[4]; tumor,0.052 ± 0.026 mL min^-1 mL^-1
same,K1/k2 (P) equilibrium distribution volume,[4]; tumor,0.331 ±0.125 mL mL^-1
same,k3 (P) rate constant,[4]; tumor,0.231 ± 0.478 min⁻¹
same,k3/k4 (P),[4]; tumor,3.191 ± 1.559 min min^-1
